How the values were obtained:
[1] = Plasma stability of payloads and linker-payloads, mouse plasma; assay type: in vitro ADME; conditions: for half-life at 2 µM: mouse, pooled plasma
Protocol: The plasma stability of payloads and linker payloads of the disclosure were measured. For the assay, pooled frozen plasma (human, mouse or monkey) was thawed in cold water or a 37° C. water bath prior to experiment. Plasma was centrifuged at 4000 rpm for 5 min if any clots were observed, they were subsequently removed. If required, the pH was adjusted to 7.4±0.1. For the preparation of compounds and positive controls, a 1 mM intermediate solution was prepared by diluting 10 μL of their stock solution with 90 μL DMSO; a 1 mM intermediate solution of the positive control (Propantheline) was prepared by diluting 10 μL of its stock solution with 90 μL ultrapure water. Subsequently, 100 μM dosing solution for each compound was prepared by diluting 20 μL of the intermediate solution (1 mM) with 180 μL 45% MeOH/H2O. 98 μL of plasma was spiked with 2 μL of dosing solution (100 μM) to achieve the final concentration of 2 μM in duplicate. Samples were then incubated at 37° C. in a water bath. […] At each time point, 400 μL of stop solution (200 ng/mL tolbutamide plus 200 ng/mL labetalol in 50% ACN/MeOH) was added to precipitate protein and mixed thoroughly. Sample plates were then centrifuged at 4,000 rpm for 10 min. An aliquot of supernatant (50 μL) was transferred from each well and mixed with 100 μL ultrapure water. The samples were then shaken at 800 rpm for approximately 10 min before submitting for LC-MS/MS analysis.

[2] = target: human GLP1R (Homo sapiens, UniProt P43220); assay: Human GLP1R cAMP accumulation assay; assay type: cell-based; parameters: HEK293 cells over-expressing full length human GLP-1R were utilized; expressed in transfected cells; host or cells: HEK293 (HEK293/hGLP1R)
Outline: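 cAMP accumulation measured after 30 min at 23° C, with 500 μM IBMX in HEPES-buffered HBSS plus 0.1% BSA, in HEK293 cells expressing full-length hGLP-1R. Levels read by D2-cAMP/antibody immunoassay via standard curve, scaled between low and high controls. EC50 fitted four-parameter over a 10-point curve.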

[3] = Plasma stability of payloads and linker-payloads, human plasma; assay type: in vitro ADME; conditions: pooled plasma, pH 7.4, tested time B (2 hrs per footnote), 2 μM, 37° C., read-out: Human plasma stability assay T½ (converted)
Outline: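 Pooled plasma, pH adjusted to 7.4±0.1 where needed, spiked to 2 μM compound (duplicate) and incubated at 37 °C. At each time point, protein was precipitated with ACN/MeOH stop solution containing internal standards; remaining compound quantified in supernatant by LC-MS/MS.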

[4] = Liver microsome stability; assay type: in vitro ADME, human; conditions: human, microsomes, Table 7
Protocol: To assess the in vitro ADME properties of the LP, microsomal stability assay was performed to determine intrinsic clearance, and plasma protein binding assay was performed to understand the distribution potential.

[5] = Plasma protein binding (equilibrium dialysis); assay type: in vitro ADME, human; conditions: Human Plasma; 4 hours dialysis
Protocol: The pH value of the resulting plasma was checked
(<http://www.htdialysis.com/>).
DMSO working solutions were prepared at 400 μM. […] These samples were transferred into new 96-well plates.

Sequence of human GLP1R (P43220 24-463): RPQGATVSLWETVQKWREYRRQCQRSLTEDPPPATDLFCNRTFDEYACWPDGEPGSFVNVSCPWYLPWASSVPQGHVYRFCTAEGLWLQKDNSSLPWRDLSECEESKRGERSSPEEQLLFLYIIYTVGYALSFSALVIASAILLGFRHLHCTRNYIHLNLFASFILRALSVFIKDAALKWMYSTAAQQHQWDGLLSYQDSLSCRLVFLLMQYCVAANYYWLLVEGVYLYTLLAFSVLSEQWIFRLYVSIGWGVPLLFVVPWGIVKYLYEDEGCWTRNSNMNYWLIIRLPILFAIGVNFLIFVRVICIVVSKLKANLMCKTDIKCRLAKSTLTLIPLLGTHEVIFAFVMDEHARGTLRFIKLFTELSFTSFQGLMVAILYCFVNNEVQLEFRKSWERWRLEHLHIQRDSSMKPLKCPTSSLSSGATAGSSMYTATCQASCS

CCc1cc(OC)ccc1-c1ccc(C[C@H](NC(=O)[C@H](CC(=O)O)NC(=O)[C@H](CO)NC(=O)[C@@H](NC(=O)[C@](C)(Cc2ccccc2F)NC(=O)[C@@H](NC(=O)CNC(=O)[C@H](Cc2nn[nH]n2)NC(=O)C(C)(C)C(=O)NCCc2cnc[nH]2)[C@@H](C)O)[C@@H](C)O)C(=O)N[C@@H](CCCc2ccc(OCCCCNC(=O)CCOCCOCCOCCOCCOCCOCCOCCOCCOCCOCCOCCOCCOCCOCCOCCOCCOCCOCCOCCOCCOCCOCCOCCOCCNC(=O)CCC(=O)N3Cc4ccccc4-c4c(nnn4CC4OC5OC6C(CO)OC(OC7C(CO)OC(OC8C(CO)OC(OC9C(CO)OC(OC%10C(CO)OC(OC4C(O)C5O)C(O)C%10O)C(O)C9O)C(O)C8O)C(O)C7O)C(O)C6O)-c4ccccc43)cc2)C(N)=O)cc1 (some centres unmarked) [LP23, cyclo-dex-trin-triazole-DIBAC-suc-PEG24-P24]
plasma stability T½ ([1]; Mouse, assay time 2 hr, Table 5B): >4 h | half-life at 2 µM ([1]; pH 7.4, Mouse, assay time 2 hr, Table 5B, read-out: plasma stability T½): > 4 h | half-life at 2 µM ([1]; pH 7.4, Table 5A, mouse plasma, tested time B (2 hrs), read-out: plasma stability T½ (hr), mouse): > 4.8 h | EC50 [2]: 0.534 nM | half-life at 2 µM [3]: > 4.8 h

C[C@]12CC[C@H]3[C@@H](CCC4=CC(=O)CC[C@@]43C)[C@@H]1CC[C@@H]2O [Testosterone]
CLint scaled ([4]; read-out: CLint(liver)): 77.2 mL/min/kg | microsomal CLint ([4]; read-out: CLint(mic)): 85.7 µL/min/mg

CC(=O)CC(c1ccccc1)c1c(O)c2ccccc2oc1=O (centres unmarked) [Warfarin]
recovery at 4 h, 2 µM [5]: 98.3%

From patent US20230330254A1 (Regeneron Pharmaceuticals, Inc., priority 2022, published 2023)
